Laboratory results reported in ChEMBL document CHEMBL4229428, “Design, synthesis, X-ray studies, and biological evaluation of novel BACE1 inhibitors with bicyclic isoxazoline carboxamides as the P3 ligand” (Bioorg Med Chem Lett, 2018).

These compounds were tested against T1, Beta-secretase 1 (Homo sapiens, UniProt P56817) (assay: Inhibition of recombinant BACE1 (unknown origin) using fluorogenic substrate).
T1 sequence (P56817 whole entry): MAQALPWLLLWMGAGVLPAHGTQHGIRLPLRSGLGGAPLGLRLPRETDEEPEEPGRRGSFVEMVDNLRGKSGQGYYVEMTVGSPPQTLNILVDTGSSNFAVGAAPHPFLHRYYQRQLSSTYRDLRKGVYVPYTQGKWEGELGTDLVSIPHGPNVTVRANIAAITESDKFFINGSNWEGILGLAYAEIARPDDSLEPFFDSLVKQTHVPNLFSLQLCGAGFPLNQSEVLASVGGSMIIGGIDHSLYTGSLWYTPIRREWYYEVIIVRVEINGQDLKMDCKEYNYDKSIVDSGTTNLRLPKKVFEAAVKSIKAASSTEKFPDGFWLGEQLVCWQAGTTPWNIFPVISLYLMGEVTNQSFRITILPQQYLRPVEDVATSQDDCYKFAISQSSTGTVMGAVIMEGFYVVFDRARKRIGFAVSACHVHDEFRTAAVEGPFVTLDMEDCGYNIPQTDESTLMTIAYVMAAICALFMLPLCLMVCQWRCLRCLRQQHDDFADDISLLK
`CC(C)CNC(=O)[C@@H](NC(=O)[C@H](C)C[C@H](O)[C@H](CC(C)C)NC(=O)[C@H](CNC(=O)OC(C)(C)C)NC(=O)C1=NO[C@@H]2OCC[C@H]12)C(C)C` was tested, and the Ki was 809 nM.
`CSC[C@H](NC(=O)C1=NO[C@H]2OCC[C@@H]12)C(=O)N[C@@H](CC(C)C)[C@@H](O)C[C@@H](C)C(=O)N[C@H](C(=O)NCC(C)C)C(C)C` was tested, and the Ki was 554 nM.
Work on `CSC[C@H](NC(=O)C1=NO[C@@H]2OCC[C@H]12)C(=O)N[C@@H](CC(C)C)[C@@H](O)C[C@@H](C)C(=O)N[C@H](C(=O)NCC(C)C)C(C)C` yielded a Ki of 10.9 nM.
`COc1cccc(CNC[C@@H](O)[C@H](Cc2ccccc2)NC(=O)[C@H](CS(C)(=O)=O)NC(=O)C2=NO[C@H]3OCC[C@@H]23)c1` showed a Ki of 28800 nM.
Work on `CC(C)CNC(=O)[C@@H](NC(=O)[C@H](C)C[C@H](O)[C@H](CC(C)C)NC(=O)[C@H](CS(C)(=O)=O)NC(=O)C1=NO[C@@H]2OCCC[C@H]12)C(C)C` yielded a Ki of 28.1 nM.
`CC(C)CNC(=O)[C@@H](NC(=O)[C@H](C)C[C@H](O)[C@H](CC(C)C)NC(=O)[C@H](CNC(=O)OC(C)(C)C)NC(=O)C1=NO[C@H]2OCC[C@@H]12)C(C)C` showed a Ki of 4120 nM.
With `COc1cccc(CNC[C@@H](O)[C@H](Cc2ccccc2)NC(=O)[C@H](CS(C)(=O)=O)NC(=O)C2=NO[C@@H]3OCC[C@H]23)c1` the Ki was 41100 nM.
Work on `CC(C)CNC(=O)[C@@H](NC(=O)[C@H](C)C[C@H](O)[C@H](CC(C)C)NC(=O)[C@H](CS(C)(=O)=O)NC(=O)C1=NO[C@@H]2OCC[C@H]12)C(C)C` yielded a Ki of 110 nM.
`CC(C)CNC(=O)[C@@H](NC(=O)[C@H](C)C[C@H](O)[C@H](CC(C)C)NC(=O)[C@H](CS(C)(=O)=O)NC(=O)C1=NO[C@H]2OCCC[C@@H]12)C(C)C` showed a Ki of 630 nM.
Compound `CC(C)CNC(=O)[C@@H](NC(=O)[C@H](C)C[C@H](O)[C@H](CC(C)C)NC(=O)[C@H](CS(C)(=O)=O)NC(=O)C1=NO[C@H]2OCC[C@@H]12)C(C)C` has a Ki of 280 nM.

What follows are compounds tested against T1, Beta-secretase 1 (assay: Inhibition of BACE1 (unknown origin) by cell-based assay).
For `CSC[C@H](NC(=O)C1=NO[C@@H]2OCC[C@H]12)C(=O)N[C@@H](CC(C)C)[C@@H](O)C[C@@H](C)C(=O)N[C@H](C(=O)NCC(C)C)C(C)C`, the EC50 was 343 nM.
